This note sets out measurements from patent US9060515B2, “Heterocyclic urea compounds” (BIOTA EUROPE LTD, priority 2011, dated 2015).

One experiment relates to S. aureus (ATCC 29213). In words: Antibacterial susceptibility testing (MIC, broth microdilution or agar dilution), S. aureus. The class given is cell-based. The following applies: Staphylococcus aureus, ATCC29213; read-out: S. aureus (ATCC 29213) minimal inhibitory concentration (MIC). The protocol:
(§1) Compounds of the invention were tested for antimicrobial activity by susceptibility testing in liquid or on solid media. MICs for compounds against each strain were determined by the broth microdilution or agar dilution method according to the guidelines of the Clinical Laboratories and Standards Institute, formerly the National Committee for Clinical Laboratory Standards (Clinical Laboratories and Standards Institute. Methods for Dilution Antimicrobial Susceptibility Tests for Bacteria That Grow Aerobically; Approved Standard—Seventh Edition. Document M7-A7. CLSI, Wayne, Pa., 2006; Clinical Laboratories and Standards Institute. The Gram positive bacterial strains tested include S. aureus (Staphylococcus aureus (Isolate ID ATCC 29213)), E. faecalis (Enterococcus faecalis (Isolate ID ATCC 29212)) and S. pyogenes (Streptococcus pyogenes (Isolate ID ATCC 51339)). The Gram negative bacterial strains tested include H. influenzae (Haemophilus influenzae (Isolate ID ATCC 49247)).

In another experiment the test system is S. pyogenes (ATCC 51339). Kind of experiment: Antibacterial susceptibility testing (MIC, broth microdilution or agar dilution), S. pyogenes. The class given is cell-based. The following applies: Streptococcus pyogenes, ATCC51339; read-out: S. pyogenes (ATCC 51339) minimal inhibitory concentration (MIC). The method, then: as §1

In brackets after ≈: the same amount, converted by molar mass. Some results are limits rather than exact numbers.

`CCNC(=O)Nc1cc(Nc2ccc(CO)cc2)c(C(=O)Nc2cccnc2)cn1` [Compound 128, 6-(3-ethylureido)-4-(4-(hydroxymethyl)phenylamino)-N-(pyridin-3-yl)nicotinamide]: the MIC with S. aureus (ATCC 29213) was 8 µg/mL (≈ 19.7 µM); in the experiment on S. pyogenes (ATCC 51339), at most 1 µg/mL.

`CCNC(=O)Nc1cc(Nc2ccccc2)c(C(=O)Nc2ccc(OC)nc2)cn1` [Compound 63, 6-(3-ethylureido)-N-(6-methoxypyridin-3-yl)-4-(phenylamino)nicotinamide]: the MIC with S. aureus (ATCC 29213) and in the experiment on S. pyogenes (ATCC 51339) was at most 1 µg/mL in each case.

As to `CCNC(=O)Nc1cc(Nc2ccccc2)c(C(=O)Nc2cccc(C(F)(F)F)c2)cn1` [Compound 48, 6-(3-ethylureido)-4-(phenylamino)-N-(3-(trifluoromethyl)phenyl)nicotinamide], the results for the MIC with S. aureus (ATCC 29213) and in the experiment with S. pyogenes (ATCC 51339) were at most 1 µg/mL and 8 µg/mL (≈ 18 µM), respectively.

On to `CCNC(=O)Nc1cc(Nc2ccccc2)c(C(=O)Nc2ccn(C)n2)cn1` [Compound 59, 6-(3-ethylureido)-N-(1-methyl-1H-pyrazol-3-yl)-4-(phenylamino)nicotinamide], for which the MIC in the experiment on S. aureus (ATCC 29213) is 8 µg/mL (≈ 21.1 µM); in the experiment on S. pyogenes (ATCC 51339), 2 µg/mL (≈ 5.27 µM).

For the molecule `CCNC(=O)Nc1cc(Nc2ccccc2)c(C(N)=O)cn1` [Compound 61, 6-(3-Ethylureido)-4-(phenylamino)nicotinamide], the figures for the MIC with S. aureus (ATCC 29213) and with S. pyogenes (ATCC 51339) were 32 µg/mL (≈ 107 µM) and 16 µg/mL (≈ 53.5 µM), respectively.

Turning to `CCNC(=O)Nc1cc(Nc2ccccc2)c(C(=O)Nc2ccc(CCC(C)=O)cc2)cn1` [Compound 122, 6-(3-Ethylureido)-N-(4-(3-oxobutyl)phenyl)-4-(phenylamino)nicotinamide], the MIC with S. aureus (ATCC 29213) and in the experiment on S. pyogenes (ATCC 51339) was at most 1 µg/mL throughout.

On to `CCNC(=O)Nc1cc(Nc2ccccc2)c(C(=O)Nc2ccc(C(F)(F)F)cc2)cn1` [Compound 47, 6-(3-ethylureido)-4-(phenylamino)-N-(4-(trifluoromethyl)phenyl)nicotinamide], for which the MIC in the experiment on S. aureus (ATCC 29213) was 4 µg/mL (≈ 9.02 µM); in the experiment on S. pyogenes (ATCC 51339), 32 µg/mL (≈ 72.2 µM).

As to `CCNC(=O)Nc1cc(Nc2ccccc2)c(C(=O)Nc2ccc(CCC(=O)N(C)C)cc2)cn1` [Compound 119, N-(4-(3-(dimethylamino)-3-oxopropyl)phenyl)-6-(3-ethylureido)-4-(phenylamino)nicotinamide], the MIC with S. aureus (ATCC 29213) and in the experiment with S. pyogenes (ATCC 51339) was at most 1 µg/mL throughout.

Regarding `CCNC(=O)Nc1cc(Nc2ccccc2)c(C(=O)Nc2ccc(Cl)cc2)cn1` [Compound 34, N-(4-chlorophenyl)-6-(3-ethylureido)-4-(phenylamino)nicotinamide], the MIC was determined as 4 µg/mL (≈ 9.76 µM) with S. aureus (ATCC 29213) and 32 µg/mL (≈ 78.1 µM) in the experiment on S. pyogenes (ATCC 51339).

Regarding `CCNC(=O)Nc1cc(Nc2ccn(C)n2)c(C(=O)Nc2cccnc2)cn1` [Compound 116, 6-(3-ethylureido)-4-(1-methyl-1H-pyrazol-3-ylamino)-N-(pyridin-3-yl)nicotinamide], the MIC in the experiment on S. aureus (ATCC 29213) is 4 µg/mL (≈ 10.5 µM); in the experiment with S. pyogenes (ATCC 51339) it was at most 1 µg/mL.

On to `CCNC(=O)Nc1cc(Nc2ccccc2)c(C(=O)Nc2ccc(NC(C)C)nc2)cn1` [Compound 95, 6-(3-ethylureido)-N-(6-(isopropylamino)pyridin-3-yl)-4-(phenylamino)nicotinamide], for which the MIC was 2 µg/mL (≈ 4.61 µM) in the experiment with S. aureus (ATCC 29213) and at most 1 µg/mL in the experiment with S. pyogenes (ATCC 51339).

`CCNC(=O)Nc1cc(Nc2ccccc2Cl)c(C(=O)Nc2cccnc2)cn1` [Compound 105, 4-(2-chlorophenylamino)-6-(3-ethylureido)-N-(pyridin-3-yl)nicotinamide]: the MIC in the experiment with S. aureus (ATCC 29213) and with S. pyogenes (ATCC 51339) was at most 1 µg/mL in each case.

Consider `CCNC(=O)Nc1cc(Nc2ccccc2)c(C(=O)Nc2ccc(N3CCC(O)CC3)nc2)cn1` [Compound 100, 6-(3-ethylureido)-N-(6-(4-hydroxypiperidin-1-yl)pyridin-3-yl)-4-(phenylamino)nicotinamide], for which the results for the MIC in the experiment on S. aureus (ATCC 29213) and with S. pyogenes (ATCC 51339) were 2 µg/mL (≈ 4.21 µM) and at most 1 µg/mL, respectively.

On to `CCNC(=O)Nc1cc(Nc2ccccc2)c(C(=O)Nc2cc(F)cc(F)c2)cn1` [Compound 66, N-(3,5-difluorophenyl)-6-(3-ethylureido)-4-(phenylamino)nicotinamide], for which the MIC with S. aureus (ATCC 29213) is at most 1 µg/mL; in the experiment on S. pyogenes (ATCC 51339) it was 4 µg/mL (≈ 9.72 µM).

For `CCNC(=O)Nc1cc(Nc2ccccc2)c(C(=O)Nc2cncc(F)c2)cn1` [Compound 85, 6-(3-ethylureido)-N-(5-fluoropyridin-3-yl)-4-(phenylamino)nicotinamide], the MIC with S. aureus (ATCC 29213) and with S. pyogenes (ATCC 51339) was at most 1 µg/mL throughout.

Turning to `CCNC(=O)Nc1cc(Nc2ccccc2)c(C(=O)Nc2cncc(OC)c2)cn1` [Compound 79, 6-(3-ethylureido)-N-(5-methoxypyridin-3-yl)-4-(phenylamino)nicotinamide], the MIC in the experiment on S. aureus (ATCC 29213) and in the experiment with S. pyogenes (ATCC 51339) was at most 1 µg/mL throughout.

`CCNC(=O)Nc1cc(Nc2ccccc2)c(C(=O)Nc2ccc(CCC(=O)NC)cc2)cn1` [Compound 120, 6-(3-ethylureido)-N-(4-(3-(methylamino)-3-oxopropyl)phenyl)-4-(phenylamino)nicotinamide]: the MIC is 2 µg/mL (≈ 4.34 µM) in the experiment on S. aureus (ATCC 29213) and at most 1 µg/mL in the experiment with S. pyogenes (ATCC 51339).

As for `CCNC(=O)Nc1cc(Nc2ccccc2OC)c(C(=O)Nc2cccnc2)cn1` [Compound 109, 6-(3-ethylureido)-4-(2-methoxyphenylamino)-N-(pyridin-3-yl)nicotinamide], the MIC in the experiment with S. aureus (ATCC 29213) was 2 µg/mL (≈ 4.92 µM); with S. pyogenes (ATCC 51339), at most 1 µg/mL.

On to `CCNC(=O)Nc1cc(Nc2cccc(C(=O)OC)c2)c(C(=O)Nc2cccnc2)cn1` [Compound 97, methyl 3-(2-(3-ethylureido)-5-(pyridin-3-ylcarbamoyl)pyridin-4-ylamino)benzoate], for which the MIC is 2 µg/mL (≈ 4.6 µM) in the experiment with S. aureus (ATCC 29213) and 32 µg/mL (≈ 73.7 µM) in the experiment on S. pyogenes (ATCC 51339).

Turning to `CCNC(=O)Nc1cc(Nc2ccccc2)c(C(=O)NCc2ccccn2)cn1` [Compound 52, 6-(3-ethylureido)-4-(phenylamino)-N-(pyridin-2-ylmethyl)nicotinamide], the MIC in the experiment on S. aureus (ATCC 29213) is 32 µg/mL (≈ 82 µM); with S. pyogenes (ATCC 51339), 8 µg/mL (≈ 20.5 µM).

For `CCNC(=O)Nc1cc(Nc2ccccc2)c(C(=O)NCc2ccncc2)cn1` [Compound 51, 6-(3-ethylureido)-4-(phenylamino)-N-(pyridin-4-ylmethyl)nicotinamide], the MIC was 32 µg/mL (≈ 82 µM) in the experiment on S. aureus (ATCC 29213) and 2 µg/mL (≈ 5.12 µM) with S. pyogenes (ATCC 51339).

On to `CCNC(=O)Nc1cc(Nc2ccccc2)c(C(=O)Nc2ccc(F)cc2)cn1` [Compound 55, 6-(3-ethylureido)-N-(4-fluorophenyl)-4-(phenylamino)nicotinamide], for which the MIC with S. aureus (ATCC 29213) was at most 1 µg/mL; in the experiment on S. pyogenes (ATCC 51339) it was 4 µg/mL (≈ 10.2 µM).

Take `CCNC(=O)Nc1cc(Nc2cccc(OC)c2)c(C(=O)Nc2cccnc2)cn1` [Compound 111, 6-(3-ethylureido)-4-(3-methoxyphenylamino)-N-(pyridin-3-yl)nicotinamide]: the MIC in the experiment with S. aureus (ATCC 29213) and with S. pyogenes (ATCC 51339) was at most 1 µg/mL in each case.

Regarding `CCNC(=O)Nc1cc(Nc2ccccc2)c(C(=O)Nc2ccc(CCC(N)=O)cc2)cn1` [Compound 118, N-(4-(3-amino-3-oxopropyl)phenyl)-6-(3-ethylureido)-4-(phenylamino)nicotinamide], the MIC in the experiment with S. aureus (ATCC 29213) is 2 µg/mL (≈ 4.48 µM); with S. pyogenes (ATCC 51339), at most 1 µg/mL.

On to `CCNC(=O)Nc1cc(Nc2ccc(CC(=O)OCC)cc2)c(C(=O)Nc2cccnc2)cn1` [Compound 110, ethyl 2-(4-(2-(3-ethylureido)-5-(pyridin-3-ylcarbamoyl)pyridin-4-ylamino)phenyl)acetate], for which the MIC in the experiment with S. aureus (ATCC 29213) and in the experiment with S. pyogenes (ATCC 51339) was 4 µg/mL (≈ 8.65 µM) each time.

In the case of `CCNC(=O)Nc1cc(Nc2ccccc2)c(C(=O)Nc2ccc(=O)n(C)c2)cn1` [Compound 99, 6-(3-ethylureido)-N-(1-methyl-6-oxo-1,6-dihydropyridin-3-yl)-4-(phenylamino)nicotinamide], the values for the MIC in the experiment on S. aureus (ATCC 29213) and in the experiment on S. pyogenes (ATCC 51339) were 16 µg/mL (≈ 39.4 µM) and at most 1 µg/mL, respectively.

On to `CCNC(=O)Nc1cc(Nc2ccccc2)c(C(=O)Nc2cnc3c(c2)ncn3C)cn1` [Compound 88, 6-(3-ethylureido)-N-(3-methyl-3H-imidazo[4,5-b]pyridin-6-yl)-4-(phenylamino)nicotinamide], for which the MIC in the experiment on S. aureus (ATCC 29213) was 2 µg/mL (≈ 4.65 µM); in the experiment with S. pyogenes (ATCC 51339), at most 1 µg/mL.

With `CCNC(=O)Nc1cc(Nc2ccccc2)c(C(=O)Nc2ccc(C#N)nc2)cn1` [Compound 104, N-(6-cyanopyridin-3-yl)-6-(3-ethylureido)-4-(phenylamino)nicotinamide], the results for the MIC with S. aureus (ATCC 29213) and with S. pyogenes (ATCC 51339) were 2 µg/mL (≈ 4.98 µM) and at most 1 µg/mL, respectively.

For `CCNC(=O)Nc1cc(Nc2ccccc2)c(C(=O)Nc2cncnc2)cn1` [Compound 60, 6-(3-ethylureido)-4-(phenylamino)-N-(pyrimidin-5-yl)nicotinamide], the MIC in the experiment with S. aureus (ATCC 29213) is 4 µg/mL (≈ 10.6 µM); in the experiment on S. pyogenes (ATCC 51339), at most 1 µg/mL.

For the molecule `CCNC(=O)Nc1cc(Nc2ccccc2)c(C(=O)Nc2cc(C(=O)OC)n(C)c2)cn1` [Compound 86, methyl 4-(6-(3-ethylureido)-4-(phenylamino)nicotinamido)-1-methyl-1H-pyrrole-2-carboxylate], the MIC in the experiment with S. aureus (ATCC 29213) and in the experiment on S. pyogenes (ATCC 51339) was at most 1 µg/mL throughout.

As to `CCNC(=O)Nc1cc(Nc2ccccc2)c(C(=O)Nc2ccc(C)cc2)cn1` [Compound 46, 6-(3-ethylureido)-4-(phenylamino)-N-p-tolylnicotinamide], the MIC in the experiment on S. aureus (ATCC 29213) came out at 2 µg/mL (≈ 5.14 µM); in the experiment on S. pyogenes (ATCC 51339) it was 4 µg/mL (≈ 10.3 µM).

On to `CCNC(=O)Nc1cc(Nc2ccccc2)c(C(=O)Nc2c(C)noc2C)cn1` [Compound 50, N-(3,5-dimethylisoxazol-4-yl)-6-(3-ethylureido)-4-(phenylamino)nicotinamide], for which the MIC in the experiment on S. pyogenes (ATCC 51339) is 4 µg/mL (≈ 10.1 µM).

For the molecule `CCNC(=O)Nc1cc(Nc2ccc(CC(=O)O)cc2)c(C(=O)Nc2cccnc2)cn1` [Compound 114, 2-(4-(2-(3-ethylureido)-5-(pyridin-3-ylcarbamoyl)pyridin-4-ylamino)phenyl)acetic acid], the MIC in the experiment on S. pyogenes (ATCC 51339) is 8 µg/mL (≈ 18.4 µM).
